Measured values published in publication PMC12172035, “The Thienopyrimidinone Gamhépathiopine Targets the QO Site of Plasmodium falciparum Cytochrome b” (ACS Infectious Diseases, 2025).

Target: T1, cytochrome b (Plasmodium falciparum, UniProt Q02768)
T1 construct: gene MT-CYB; native complex III in mitochondrial membrane fraction of P. falciparum 3D7 lysate; with complex III (cytochrome c1, Rieske iron-sulfur protein)
T1 sequence (Q02768 1-376): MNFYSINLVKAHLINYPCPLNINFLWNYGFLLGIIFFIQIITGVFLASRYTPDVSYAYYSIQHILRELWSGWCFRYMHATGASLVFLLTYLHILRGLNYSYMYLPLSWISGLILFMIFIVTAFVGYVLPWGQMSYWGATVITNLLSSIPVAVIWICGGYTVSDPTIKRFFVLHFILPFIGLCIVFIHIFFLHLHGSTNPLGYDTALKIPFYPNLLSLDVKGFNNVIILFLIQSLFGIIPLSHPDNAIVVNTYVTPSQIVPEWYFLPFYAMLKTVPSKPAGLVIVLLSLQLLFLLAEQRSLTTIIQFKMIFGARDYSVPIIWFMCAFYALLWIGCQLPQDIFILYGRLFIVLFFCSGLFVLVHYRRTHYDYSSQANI
Assay: complex III activity assay (decylubiquinol-driven cytochrome c reduction, […] nm) in P. falciparum membrane-enriched lysate; supported by resistance mutations in cytochrome b
Type: cell-based

Cc1ccc(-c2cc3nc(NC(C)(C)C)[nH]c(=O)c3s2)cc1 [gamhépathiopine]
inhibition at 20 µM: > 93%
